Experimental data: publication PMC7240968, “Synthesis and Biological Evaluation of Imidazo[2,1-b]Thiazole based Sulfonyl Piperazines as Novel Carbonic Anhydrase II Inhibitors” (Metabolites, 2020)
pKi: −log10 of the molar value.

Experiments:
hCA XII = biological target: T1, hCA XII (Homo sapiens, UniProt O43570); test: stopped flow CO2 hydrase assay, hCA XII; format: biochemical; settings: recombinant tumor associated isoform; mean from 3 different assays, errors ±5–10%
T1 construct: made in house
T1 sequence (O43570 25-354): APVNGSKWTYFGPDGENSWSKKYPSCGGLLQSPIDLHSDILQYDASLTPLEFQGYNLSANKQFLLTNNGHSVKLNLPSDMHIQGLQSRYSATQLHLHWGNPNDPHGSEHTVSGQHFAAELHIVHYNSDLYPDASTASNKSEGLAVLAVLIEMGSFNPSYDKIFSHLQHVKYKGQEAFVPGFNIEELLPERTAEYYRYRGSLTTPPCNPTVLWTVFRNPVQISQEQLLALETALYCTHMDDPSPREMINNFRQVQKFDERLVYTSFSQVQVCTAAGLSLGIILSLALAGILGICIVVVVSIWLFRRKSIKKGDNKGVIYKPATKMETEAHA
Procedure: (§1) The newly synthesized imidazo[2,1-b]thiazole-sulfonyl piperazines (9aa-ee) were screened for their CA inhibition activity against cytosolic (hCA I, hCA II) and the tumor associated (hCA IX, hCAXII) isoforms by a stopped flow CO2 hydrase assay.
(§2) The inhibition assay of selected CA isozymes was performed using SX.18V-R Applied Photophysics (Oxford, UK) stopped flow instrument. 10 mM Hepes (pH 7.4) as a buffer, with Phenol Red (at a concentration of 0.2 mM) as an indicator, 0.1M Na2SO4 or NaClO4 (To maintain the constant ionic strength; these anions are not inhibitory in the used concentration), following the CA-catalyzed CO2 hydration reaction for a period of 5–10 s. […] Stock solutions of inhibitors were prepared at a concentration of 10 mM (in DMSO-water 1:1 v/v) and dilutions up to 0.01 nM done with the assay buffer mentioned above. […] Inhibitor and enzyme solutions were pre-incubated together for 10 min at room temperature prior to assay, in order to allow for the formation of the E-I complex. […] The inhibition constants were obtained by non-linear least square methods using the Cheng-Prusoff equation, as reported earlier, [24, 25] and represent the mean from at least three different determinations. All CA isozymes used here were recombinant proteins obtained as reported earlier by our group.

hCA II = biological target: T2, hCA II (Homo sapiens, UniProt P00918); test: stopped flow CO2 hydrase assay, hCA II; format: biochemical; settings: recombinant cytosolic isoform; mean from 3 different assays, errors ±5–10%
T2 construct: made in house
Procedure: as §1, §2

hCA IX = biological target: T3, hCA IX (Homo sapiens, UniProt Q16790); test: stopped flow CO2 hydrase assay, hCA IX; format: biochemical; settings: recombinant tumor associated isoform; mean from 3 different assays, errors ±5–10%
T3 construct: made in house
Procedure: as §1, §2

hCA I = biological target: T4, hCA I (Homo sapiens, UniProt P00915); test: stopped flow CO2 hydrase assay, hCA I; format: biochemical; settings: recombinant cytosolic isoform; mean from 3 different assays, errors ±5–10%
T4 construct: made in house
T4 sequence (P00915 whole entry, canonical isoform): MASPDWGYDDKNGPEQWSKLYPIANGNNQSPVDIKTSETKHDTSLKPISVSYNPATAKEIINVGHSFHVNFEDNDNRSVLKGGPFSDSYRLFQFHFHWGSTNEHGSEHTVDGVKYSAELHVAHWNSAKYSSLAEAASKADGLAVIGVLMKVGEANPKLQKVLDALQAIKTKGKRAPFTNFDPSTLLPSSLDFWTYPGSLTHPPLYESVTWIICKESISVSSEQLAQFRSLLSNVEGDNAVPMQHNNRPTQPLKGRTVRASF
Procedure: as §1, §2

Row | Molecule | melting point [°C] | pKi (hCA XII) | pKi (hCA II) | pKi (hCA IX) | pKi (hCA I)
1 | Cc1ccc(-c2cnc3sc(C(=O)N4CCN(S(=O)(=O)c5ccc(C(C)(C)C)cc5)CC4)cn23)cc1 [Compound 9bd, (4-((4-(Tert-butyl)phenyl)sulfonyl)piperazin-1-yl)(5-(p-tolyl)imidazo[2,1-b]thiazol-2-yl)methanone] | 222 to 224 | – | – | – | –
2 | (4-((4-(Tert-butyl)phenyl)sulfonyl)piperazin-1-yl)(5-(4-chlorophenyl)imidazo[2,1-b]thiazol-2-yl)methanone [Compound 9ce] | – | < 4.00 | 4.21 | < 4.00 | < 4.00
3 | (4-((4-(Tert-butyl)phenyl)sulfonyl)piperazin-1-yl)(5-(4-fluorophenyl)imidazo[2,1-b]thiazol-2-yl)methanone [Compound 9de] | – | < 4.00 | < 4.00 | < 4.00 | < 4.00
4 | (4-((4-Chlorophenyl)sulfonyl)piperazin-1-yl)(5-(4-fluorophenyl)imidazo[2,1-b]thiazol-2-yl)methanone [Compound 9dc] | – | < 4.00 | 4.01 | < 4.00 | < 4.00
5 | (4-((4-Chlorophenyl)sulfonyl)piperazin-1-yl)(5-phenylimidazo[2,1-b]thiazol-2-yl)methanone [Compound 9ec] | – | < 4.00 | < 4.00 | < 4.00 | < 4.00
6 | (4-((4-Methoxyphenyl)sulfonyl)piperazin-1-yl)(5-(p-tolyl)imidazo[2,1-b]thiazol-2-yl)methanone [Compound 9ba] | – | < 4.00 | < 4.00 | < 4.00 | < 4.00
7 | (4-((4-Methoxyphenyl)sulfonyl)piperazin-1-yl)(5-phenylimidazo[2,1-b]thiazol-2-yl)methanone [Compound 9ea] | – | < 4.00 | < 4.00 | < 4.00 | < 4.00
8 | (5-(4-Chlorophenyl)imidazo[2,1-b]thiazol-2-yl)(4-((4-chlorophenyl)sulfonyl)piperazin-1-yl)methanone [Compound 9cc] | – | < 4.00 | 4.24 | < 4.00 | < 4.00
9 | (5-(4-Chlorophenyl)imidazo[2,1-b]thiazol-2-yl)(4-((4-methoxyphenyl)sulfonyl)piperazin-1-yl)methanone [Compound 9ca] | – | < 4.00 | 4.10 | < 4.00 | < 4.00
10 | (5-(4-Chlorophenyl)imidazo[2,1-b]thiazol-2-yl)(4-(phenylsulfonyl)piperazin-1-yl)methanone [Compound 9cd] | – | < 4.00 | 4.15 | < 4.00 | < 4.00
11 | (5-(4-Chlorophenyl)imidazo[2,1-b]thiazol-2-yl)(4-tosylpiperazin-1-yl)methanone [Compound 9cb] | – | < 4.00 | < 4.00 | < 4.00 | < 4.00
12 | (5-(4-Fluorophenyl)imidazo[2,1-b]thiazol-2-yl)(4-((4-methoxyphenyl)sulfonyl)piperazin-1-yl)methanone [Compound 9da] | – | < 4.00 | 4.17 | < 4.00 | < 4.00
13 | (5-(4-Fluorophenyl)imidazo[2,1-b]thiazol-2-yl)(4-(phenylsulfonyl)piperazin-1-yl)methanone [Compound 9dd] | – | < 4.00 | < 4.00 | < 4.00 | < 4.00
14 | (5-(4-Fluorophenyl)imidazo[2,1-b]thiazol-2-yl)(4-tosylpiperazin-1-yl)methanone [Compound 9db] | – | < 4.00 | < 4.00 | < 4.00 | < 4.00
15 | (5-(4-Methoxyphenyl)imidazo[2,1-b]thiazol-2-yl)(4-((4-methoxyphenyl)sulfonyl)piperazin-1-yl)methanone [Compound 9aa] | – | < 4.00 | < 4.00 | < 4.00 | < 4.00
16 | (5-(4-Methoxyphenyl)imidazo[2,1-b]thiazol-2-yl)(4-(phenylsulfonyl)piperazin-1-yl)methanone [Compound 9ad] | – | < 4.00 | < 4.00 | < 4.00 | < 4.00
17 | (5-(p-Tolyl)imidazo[2,1-b]thiazol-2-yl)(4-tosylpiperazin-1-yl)methanone [Compound 9bb] | – | < 4.00 | 4.12 | < 4.00 | < 4.00
18 | (5-Phenylimidazo[2,1-b]thiazol-2-yl)(4-(phenylsulfonyl)piperazin-1-yl)methanone [Compound 9ed] | – | < 4.00 | < 4.00 | < 4.00 | < 4.00
19 | (5-Phenylimidazo[2,1-b]thiazol-2-yl)(4-tosylpiperazin-1-yl)methanone [Compound 9eb] | – | < 4.00 | < 4.00 | < 4.00 | < 4.00
